The text below walks through data of patent US11691970B2, “Pyrazolopyridinone compounds” (Janssen Pharmaceutica NV, priority 2017, dated 2023).

Experiment [1] has as its target T1, human FGFR3 wild type enzyme (cytoplasmic domain) (Homo sapiens, UniProt P22607).
T1 construct: human FGFR3 wild type enzyme (cytoplasmic domain, from Carna Biosciences); purchased Carna Biosciences
Put plainly: FGFR3 wild type mobility shift assay (enzymatic assay). In kind it is biochemical. To be noted: 75 μM ATP, 50 minutes at 30° C, Caliper EZ reader II. From the text:
FGFR3 Wild Type Mobility Shift Assay (Enzymatic Assay)

Experiment [2] deals with NIH/3T3 cells transfected with control vector. The experiment can be described thus: NIH/3T3 mock cell proliferation assay (counter assay, CellTiter Glo). In kind it is cell-based. Particulars: Mus musculus, top concentration 30 μM, counter assay for general toxicity, read-out: NIH/3T3 MOCK CTG (IC50). As to the method: NIH/3T3 Mock Cell Proliferation Assay
In day 1, 90 μL of cell suspension (NIH/3T3 cells transfected with the same control vector as in the above two proliferation assays) (total 30,000 cells per well in growth medium (DMEM containing 1% Glutamax, 10% FBS and 1% Pen/Strep)) was seeded in a 96-well plate and then incubated overnight at 37° C. and 5% CO2. In day 2, 10 μL of growth medium containing 10-fold stock solution of testing compound was added into cell cultures (9 dose points with 3× serial dilution, starting with 30 μM, 0.3% DMSO final). After 72-hr incubation at 37° C. and 5% CO2, in day 5 a volume of 50 μL CellTiter Glo (CTG) reagent was added into cell-containing 96-well plate and the plate was incubated at room temperature for 10 minutes before RLUs (relative light unit) were measured on a microplate reader with luminescence detection module.
For orientation: In ATP-based viability assays light output follows the ATP content of the culture.

Experiment [3] addresses T2, NIH/3T3 cells overexpressing FGFR3 WT-TACC3 fusion protein (Homo sapiens, UniProt P22607).
T2 construct: NIH/3T3 FGFR3 WT-TACC3 CTG (IC50); other: 72-hr incubation, CellTiter Glo, top concentration 10 μM; fused on or other part: Q9Y6A5 (Transforming acidic coiled-coil-containing protein 3)
Put plainly: NIH/3T3 FGFR3 WT-TACC3 cell proliferation assay (CellTiter Glo). To be noted: 72-hr incubation, top concentration 10 μM, read-out: NIH/3T3 FGFR3 WT-TACC3 CTG (IC50). In kind it is cell-based. As to the method: NIH/3T3 FGFR3 WT-TACC3 Cell Proliferation Assay
In day 1, 90 μL of cell suspension (NIH/3T3 cells overexpressing FGFR3 WT-TACC3 fusion protein) (total 30,000 cells per well in growth medium (DMEM containing 1% Glutamax, 10% FBS and 1% Pen/Strep)) was seeded in a 96-well plate and then incubated overnight at 37° C. and 5% CO2. […] After 72-hr incubation at 37° C. and 5% CO2, in day 5 a volume of 50 μL CellTiter Glo (CTG) reagent was added into cell-containing 96-well plate and the plate was incubated at room temperature for 10 minutes before RLUs (relative light unit) were measured on a microplate reader with luminescence detection module.

Counter-ions that a name gives are not always drawn. Like-named read-outs stand apart in the source and are kept apart here.

T1 sequence (P22607 397-806 limits assumed): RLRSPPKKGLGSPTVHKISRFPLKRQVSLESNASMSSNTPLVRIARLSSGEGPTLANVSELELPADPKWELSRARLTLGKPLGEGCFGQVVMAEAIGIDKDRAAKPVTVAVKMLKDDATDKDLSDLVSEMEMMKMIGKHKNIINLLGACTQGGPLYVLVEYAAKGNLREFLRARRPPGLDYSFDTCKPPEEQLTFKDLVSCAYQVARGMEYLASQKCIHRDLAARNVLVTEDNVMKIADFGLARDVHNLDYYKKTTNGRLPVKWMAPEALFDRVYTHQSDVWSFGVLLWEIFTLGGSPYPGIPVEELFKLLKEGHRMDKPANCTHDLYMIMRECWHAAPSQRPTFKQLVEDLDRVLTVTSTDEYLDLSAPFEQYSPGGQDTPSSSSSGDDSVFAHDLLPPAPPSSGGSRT
T2 sequence (P22607 whole entry, change not shown, the tested form may be a part): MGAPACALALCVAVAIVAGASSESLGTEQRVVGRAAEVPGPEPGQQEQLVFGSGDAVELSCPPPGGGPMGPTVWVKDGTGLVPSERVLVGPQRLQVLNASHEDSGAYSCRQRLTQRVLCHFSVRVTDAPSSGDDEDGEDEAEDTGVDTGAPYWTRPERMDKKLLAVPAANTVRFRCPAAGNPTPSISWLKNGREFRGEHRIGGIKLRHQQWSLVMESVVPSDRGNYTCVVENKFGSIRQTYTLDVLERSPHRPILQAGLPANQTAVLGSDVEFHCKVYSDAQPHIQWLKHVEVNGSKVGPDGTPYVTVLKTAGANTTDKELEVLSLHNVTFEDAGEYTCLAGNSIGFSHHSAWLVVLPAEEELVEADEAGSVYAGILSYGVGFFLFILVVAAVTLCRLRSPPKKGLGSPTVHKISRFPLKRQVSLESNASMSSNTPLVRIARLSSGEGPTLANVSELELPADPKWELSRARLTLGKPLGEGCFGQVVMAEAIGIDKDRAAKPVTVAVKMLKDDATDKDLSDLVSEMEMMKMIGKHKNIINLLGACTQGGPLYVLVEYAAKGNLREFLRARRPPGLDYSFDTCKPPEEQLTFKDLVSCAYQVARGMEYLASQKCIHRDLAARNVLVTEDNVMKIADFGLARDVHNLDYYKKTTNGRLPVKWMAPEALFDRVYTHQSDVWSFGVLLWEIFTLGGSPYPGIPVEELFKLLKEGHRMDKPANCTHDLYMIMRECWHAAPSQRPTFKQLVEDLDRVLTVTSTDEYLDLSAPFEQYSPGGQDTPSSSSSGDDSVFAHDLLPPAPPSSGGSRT

Take `CC(Nc1c(-c2nc3cc(C(F)(F)F)c(N4CCOCC4)cc3[nH]2)c(=O)[nH]c2cn(C)nc12)c1ncccn1` (racemic) [Compound 19, (Rac)-2-Methyl-6-(6-morpholino-5-(trifluoromethyl)-1H-benzo[d]imidazol-2-yl)-7-((1-(pyrimidin-2-yl)ethyl)amino)-2H-pyrazolo[4,3-b]pyridin-5(4H)-one]: the IC50 in experiment [1] came to 8.17 nM; in experiment [2] (NIH3T3, 72 h, 72-hr incubation), 3990 nM. For the same compound, the GI50 in experiment [3] amounted to 21.5 nM. As for `C[C@H](Nc1c(-c2nc3ccc(N4CCO[C@@H](C(F)(F)F)C4)cc3[nH]2)c(=O)[nH]c2cn(C)nc12)c1ncccn1` (relative stereo) [Compound 7, 2-Methyl-7-(((S*)-1-(pyrimidin-2-yl)ethyl)amino)-6-(6-((R*)-2-(trifluoromethyl)-morpholino)-1H-benzo[d]imidazol-2-yl)-2H-pyrazolo[4,3-b]pyridin-5(4H)-one], the IC50 is 0.399 nM in experiment [1] and 1080 nM in experiment [2] (NIH3T3, 72 h, 72-hr incubation). The GI50 in experiment [3] was 10.5 nM. Take `C[C@H](Nc1c(-c2nc3ccc(N4CCO[C@H](C(F)(F)F)C4)cc3[nH]2)c(=O)[nH]c2cn(C)nc12)c1ncccn1` (relative stereo) [Compound 8, 2-Methyl-7-(((S*)-1-(pyrimidin-2-yl)ethyl)amino)-6-(6-((S*)-2-(trifluoromethyl)-morpholino)-1H-benzo[d]imidazol-2-yl)-2H-pyrazolo[4,3-b]pyridin-5(4H)-one]: the IC50 in experiment [1] came to 0.542 nM; in experiment [2] (NIH3T3, 72 h, 72-hr incubation), 444 nM. Also, the GI50 in experiment [3] was 6.78 nM. Take `CC[C@H](Nc1c(-c2nc3ccc(N4CCOCC4)cc3[nH]2)c(=O)[nH]c2cn(CC)nc12)c1ncccn1` (single isomer, unassigned) [Compound 3, (S*)-2-ethyl-6-(6-morpholino-1H-benzo[d]imidazol-2-yl)-7-((1-(pyrimidin-2-yl)propyl)-amino)-2H-pyrazolo[4,3-b]pyridin-5(47f)-one]: the IC50 in experiment [1] was determined as 88.3 nM.

For the compound `CCn1cc2[nH]c(=O)c(-c3nc4ccc(N5CCOCC5)cc4[nH]3)c(NC(C)c3cocn3)c2n1` (single isomer, unassigned) [Compound 4A, (S*)-2-ethyl-6-(6-morpholino-1H-benzo[d]imidazol-2-yl)-7-((1-(oxazol-4-yl)ethyl)amino)-2H-pyrazolo[4,3-b]pyridin-5(4H)-one], the IC50 in experiment [1] is 3.77 nM; in experiment [2] (NIH3T3, 72 h, 72-hr incubation), 288 nM. Besides, the GI50 in experiment [3] was 26.1 nM.

As for `CCn1cc2[nH]c(=O)c(-c3nc4ccc(N5CCOCC5)cc4[nH]3)c(NC(C)c3cocn3)c2n1` (single isomer, unassigned) [Compound 4B, (R*)-2-ethyl-6-(6-morpholino-1H-benzo[d]imidazol-2-yl)-7-((1-(oxazol-4-yl)ethyl)-amino)-2H-pyrazolo[4,3-b]pyridin-5(4H)-one], the IC50 in experiment [1] came to 657 nM.

Consider `CC(Nc1c(-c2nc3cc(C(F)(F)F)c(N4CCOCC4)cc3[nH]2)c(=O)[nH]c2cn(C)nc12)c1cocn1` (single isomer, unassigned) [Compound 10, (S*)-2-methyl-6-(6-morpholino-5-(trifluoromethyl)-1H-benzo[d]imidazol-2-yl)-7-((1-(oxazol-4-yl)ethyl)amino)-2H-pyrazolo[4,3-b]pyridin-5(4H)-one], for which the IC50 in experiment [2] (NIH3T3, 72-hr incubation) was determined as 18400 nM.

For `CC(Nc1c(-c2nc3ccc(N4C[C@@H](C)O[C@H](C)C4)cc3[nH]2)c(=O)[nH]c2cn(C)nc12)c1ncccn1` (single isomer, unassigned) [Compound 12, 6-(6-((2R,6R)-2,6-dimethylmorpholino)-1H-benzo[d]imidazol-2-yl)-2-methyl-7-(((S*)-1-(pyrimidin-2-yl)ethyl)amino)-2H-pyrazolo[4,3-b]pyridin-5(4H)-one], in experiment [2] (NIH3T3, 72-hr incubation), the IC50 was 454 nM. Consider `CC(Nc1c(-c2nc3ccc(N4CCCCC4)c(F)c3[nH]2)c(=O)[nH]c2cn(C)nc12)c1ncccn1` (single isomer, unassigned) [Compound 16, (R*)-6-(7-fluoro-6-(piperidin-1-yl)-1H-benzo[d]imidazol-2-yl)-2-methyl-7-((1-(pyrimidin-2-yl)ethyl)amino)-2H-pyrazolo[4,3-b]pyridin-5(4H)-one], for which the IC50 in experiment [1] came out at 38.1 nM.

`C[C@H](Nc1c(-c2nc3c(F)cc(N4CCOCC4)c(F)c3[nH]2)c(=O)[nH]c2cn(C)nc12)c1ncccn1` (single isomer, unassigned) [Compound 17, (S*)-6-(4,7-difluoro-6-morpholino-1H-benzo[d]imidazol-2-yl)-2-methyl-7-((1-(pyrimidin-2-yl)ethyl)amino)-2H-pyrazolo[4,3-b]130pyridine-5(4H)-one]: the IC50 in experiment [1] stood at 46.5 nM. Consider `CC(Nc1c(-c2nc3cc(C(F)(F)F)c(N4CCOCC4)cc3[nH]2)c(=O)[nH]c2cn(C)nc12)c1ncccn1` (single isomer, unassigned) [Compound 20, (S*)2-Methyl-6-(6-morpholino-5-(trifluoromethyl)-1H-benzo[d]imidazol-2-yl)-7-((1-(pyrimidin-2-yl)ethyl)amino)-2H-pyrazolo[4,3-b]pyridin-5(4H)-one], for which the IC50 in experiment [1] was found to be 1240 nM. Regarding `COCC(Nc1c(-c2nc3c(F)cc(N4CCOCC4)cc3[nH]2)c(=O)[nH]c2cn(C)nc12)c1ncccn1` (single isomer, unassigned) [Compound 30, (R*)-6-(4-fluoro-6-morpholino-1H-benzo[d]imidazol-2-yl)-7-((2-methoxy-1-(pyrimidin-2-yl)ethyl)amino)-2-methyl-2H-pyrazolo[4,3-b]pyridin-5(4H)-one], the IC50 in experiment [1] stood at 469 nM. `C[C@H](Nc1c(-c2nc3ccc(N4CCN(C)CC4)cc3[nH]2)c(=O)[nH]c2cn(C)nc12)c1ncccc1C(F)(F)F` (single isomer, unassigned) [Compound 31, (S*)-2-methyl-6-(6-(4-methylpiperazin-1-yl)-1H-benzo[d]imidazol-2-yl)-7-((1-(3-(trifluoromethyl)pyridin-2-yl)ethyl)amino)-2H-pyrazolo[4,3-b]pyridin-5(4H)-one 0.3 formate]: in experiment [1], the IC50 was found to be 120 nM. Turning to `CC(Nc1c(-c2nc3ccc(N4CCCCC4)cc3[nH]2)c(=O)[nH]c2cn(C)nc12)c1ncccn1` (single isomer, unassigned) [Compound 35, (R*)-2-methyl-6-(6-(piperidin-1-yl)-1H-benzo[d]imidazol-2-yl)-7-((1-(pyrimidin-2-yl)-ethyl)amino)-2H-pyrazolo[4,3-b]pyridin-5(4H)-one], in experiment [1], the IC50 is 39.2 nM. On to `CC(Nc1c(-c2nc3ccc(OC4CCOCC4)cc3[nH]2)c(=O)[nH]c2cn(C)nc12)c1cocn1` (single isomer, unassigned) [Compound 37, (R*)-2-methyl-7-((1-(oxazol-4-yl)ethyl)amino)-6-(6-((tetrahydro-2H-pyran-4-yl)oxy)-1H-benzo[d]imidazol-2-yl)-2H-pyrazolo[4,3-b]pyridin-5(4H)-one], for which, in experiment [1], the IC50 is 71.7 nM. Same read-out and setting: the result for `CCC(Nc1c(-c2nc3ccc(N4CCOCC4)cc3[nH]2)c(=O)[nH]c2cn(C)nc12)c1ncccn1` (single isomer, unassigned) [Compound 40, (R*)-2-methyl-6-(6-morpholino-1H-benzo[d]imidazol-2-yl)-7-((1-(pyrimidin-2-yl)-propyl)amino)-2H-pyrazolo[4,3-b]pyridin-5(4H)-one] reads 531 nM; that for `COc1cc(N2CCOCC2)cc2[nH]c(-c3c(NC(C)c4ncccn4)c4nn(C)cc4[nH]c3=O)nc12` (single isomer, unassigned) [Compound 50, (R*)-6-(4-methoxy-6-morpholino-1H-benzo[d]imidazol-2-yl)-2-methyl-7-((1-(pyrimidin-2-yl)ethyl)amino)-2,4-dihydro-5H-pyrazolo[4,3-b]pyridin-5-one], 95.7 nM. As to `Cc1cc2nc(-c3c(N[C@@H](C)c4cocn4)c4nn(C)cc4[nH]c3=O)[nH]c2cc1N1CCOCC1` [Compound 55, (S)-2-methyl-6-(5-methyl-6-morpholino-1H-benzo[d]imidazol-2-yl)-7-((1-(oxazol-4-yl)-ethyl)amino)-2H-pyrazolo[4,3-b]pyridin-5(4H)-one], in experiment [1], the IC50 came to 811 nM. Regarding `C[C@H](Nc1c(-c2nc3cnc(N4CCOCC4)cc3[nH]2)c(=O)[nH]c2cn(C)nc12)c1cocn1` [Compound 56, (S)-2-methyl-6-(6-morpholino-1H-imidazo[4,5-c]pyridin-2-yl)-7-((1-(oxazol-4-yl)ethyl)-amino)-2,4-dihydro-5H-pyrazolo[4,3-b]pyridin-5-one], the IC50 in experiment [1] worked out at 156 nM.
